Laboratory results taken from US20160067347A1, “APJ RECEPTOR AGONISTS AND USES THEREOF” (AMGEN INC., priority 2012, published 2016).
*1 amine or outer side, *2 acyl side, *3 side chain or, on linkers, in order; H or OH if unused. Primed or numbered codes have the meaning given here. Where no end group is shown, it is not given here. [ ]: non-standard residue; d: D form. Atz = (S)-2-amino-3-(1H-1,2,3-triazol-4-yl)propanoyl residue, substituent (PEG) on triazole N1, O=C([C@H](Cc1cn([*:3])nn1)N[*:1])[*:2]; Oic = O=C(O)[C@@H]1C[C@@H]2CCCC[C@@H]2N1; Phe(4-Cl) = N[C@@H](Cc1ccc(Cl)cc1)C(=O)O; hArg = N=C(N)NCCCC[C@H](N)C(=O)O; Cha = N[C@@H](CC1CCCCC1)C(=O)O; 20K‑mPEG = 20 kDa methoxy-PEG; 40K‑mPEG = 40 kDa methoxy-PEG; pGlu = O=C1CC[C@@H](C(=O)O)N1; PEG10′ = not defined here; Nle = CCCC[C@H](N)C(=O)O; Mpa = O=C(O)CCS

Key:
APJ receptor [1] = molecular target: T1, APJ receptor (Rattus norvegicus, UniProt Q9JHG3); experiment: EC50
T1 construct: expressed in transfected cells; CHO is named only for the cAMP assay
T1 sequence (Q9JHG3 whole entry, looked up): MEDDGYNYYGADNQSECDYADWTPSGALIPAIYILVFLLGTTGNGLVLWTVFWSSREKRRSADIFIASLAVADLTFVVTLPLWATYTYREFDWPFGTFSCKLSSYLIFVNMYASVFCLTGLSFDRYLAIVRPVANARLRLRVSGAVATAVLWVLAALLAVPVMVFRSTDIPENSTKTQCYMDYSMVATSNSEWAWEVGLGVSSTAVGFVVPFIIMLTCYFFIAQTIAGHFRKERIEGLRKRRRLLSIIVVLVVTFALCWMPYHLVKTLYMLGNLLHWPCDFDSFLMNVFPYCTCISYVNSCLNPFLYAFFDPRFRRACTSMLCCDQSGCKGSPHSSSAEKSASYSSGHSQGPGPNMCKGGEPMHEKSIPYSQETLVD
From the text: Table printed on a drawing sheet, FIGURE 11
The patent's description of the figure: FIG. 11. Effects of peptide valency on in vitro activity.
First copying reader's note: The sheet prints no unit for the EC50 column; the plot under the table ([35S]GTPγS binding, rAPJ stable cell line) is not copied.

[2] = system: isolated Langendorff rat heart; experiment: Langendorff isolated rat heart, hemodynamic cardiac function; conditions: control rats, FIGS. 7 and 8
From the text: To assess the hemodynamic cardiac function of the peptides a Langendorff isolated heart system was used. The isolated heart from rat provides broad spectrum of measurements that can include biochemical, metabolic, morphological and physiological indices. The limitations/advantages of the method include absence of neurohormonal influences, neural regulation and high coronary flows. Such limitations, however, are offset by the ability to study direct cardiac effects without systemic circulation and a host of peripheral interactions.
The reproducibility and accuracy of measurements and relatively low costs over in vivo studies for profiling drugs outweigh any limitations of this method. Therefore, this method provides excellent dose-response relationship and sheds critical insight into the pharmacological and physiological properties of the molecules of interest.
The animals were anesthetized upon administration of 50-100 mg/kg dose of sodium pentobarbital for rat via the intraperitoneal route. The heart was excised and gently cradled between fingers to avoid injury followed by lifting slightly before incising the aorta, vena cava and pulmonary vessels Immediately after excision of the heart with aorta, the heart was mounted onto the cannula in the Langendorff apparatus via the aorta. The heart was perfused with modified oxygenated Krebs-Henseleit buffer pH7.5 and equilibrated with 95% O2/5% CO2 at 37° C. The perfusion was performed at a constant flow of 10 ml/min and paced at 300 bpm. The pressure was measured through a pressure sensing balloon catheter inserted in the LV cavity. The intrinsic inotropy (force of muscle contraction) and lusitropy (cardiac relaxation) effects of the heart were assessed by dp/dtmax and dp/dtmin.
These figures illustrate improvement in both systolic and diastolic function of normal hearts with peptides of SEQ ID NOs: 23 and 24.

[3] = system: healthy rats and rats having MI-induced heart failure; experiment: In vivo cardiac hemodynamics (Millar PV loop, femoral arterial pressure) in healthy and MI-induced heart failure rats; design: species or system rat; conditions: for mean dp/dt max increase: intravenous infusion, FIG. 9
Protocol: The cardiac function of healthy rats and the rats having MI (myocardial infarction)-induced heart failure was measured via the Millar PV loop system and femoral arterial pressure catheter were examined.
Male Lewis rats at 2-3 months of age were used for the studies. MI was induced by ligation of the left anterior descending coronary artery (LAD). Echocardiography was performed at 1 week post-MI for animal enrollment. If ejection fraction (EF) was more than 40% and no infarct was identified from echocardiography images, these animals were excluded from the study. The Millar PV loop catheter was inserted into the right common carotid artery and then advanced to the left ventricle (LV) for cardiovascular hemodynamic assessment. The arterial pressure catheter was inserted into a femoral artery for peripheral blood pressure monitoring.
Experiments were performed either on six-seven weeks post-MI rat, or healthy rats. […] Test articles were given intravenously via jugular vein, and 3 sets of peptide doses were used in the experiment. […] At the end of the experiment, the infarct size was verified by gross morphology if MI rats were used in the study.
Animals in MI groups had very similar infarct size (38-39% of LV) among the groups (results not shown).

isolated cardiomyocyctes = conditions: isolated cardiomyocytes; Barnes et al.; cited from earlier work
APJ receptor [4] = experiment: EC50 IP (µM)
From the text: Table printed on a drawing sheet, FIGURE 3B
Head of the field: EC50 IP (µM)
Section band inside the table: Peptides with 525 Da PEG modification
The patent's description of the figure: FIGS. 3A-C.
First copying reader's note: Row 2 is a section heading spanning all columns; blanks inside names and sequences only mark line breaks within the printed cell.
Where the first naming reader finds the target: passage: An “APJ agonist” should be understood to refer to a molecule that is able to activate the APJ receptor.

human APJ = molecular target: T2, human APJ (Homo sapiens, UniProt P35414); experiment: cAMP assay, stable CHO cell line expressing human APJ; assay type: cell-based; conditions: FIG. 5; cAMP seen with either human or rat APJ stable cell lines
T2 construct: expressed in transfected cells
T2 sequence (P35414 1-380): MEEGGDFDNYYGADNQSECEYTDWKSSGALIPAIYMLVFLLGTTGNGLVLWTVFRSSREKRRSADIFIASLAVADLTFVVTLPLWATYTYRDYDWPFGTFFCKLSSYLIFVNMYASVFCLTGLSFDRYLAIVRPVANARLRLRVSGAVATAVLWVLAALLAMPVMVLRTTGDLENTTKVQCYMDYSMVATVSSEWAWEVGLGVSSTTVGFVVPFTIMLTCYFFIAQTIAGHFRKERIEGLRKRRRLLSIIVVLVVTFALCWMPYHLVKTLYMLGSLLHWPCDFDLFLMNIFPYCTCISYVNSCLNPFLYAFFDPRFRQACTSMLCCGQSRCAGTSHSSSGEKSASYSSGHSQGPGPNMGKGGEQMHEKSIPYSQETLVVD
Protocol: Stable CHO cell lines expressing APJ were used for cAMP assays. The cells were incubated with stimulation buffer containing HANK's buffer, forskolin and 0.5 mM IBMX in the absence or presence of various concentrations' of peptides at 37° C. for 45 min. The cAMP level was determined using a cyclic AMP kit (DiscoverX) according to the manufacturer's instructions.

rat APJ receptor = molecular target: T3, rat APJ receptor (rat, UniProt Q9JHG3 1-377); experiment: cell-based or functional assay
T3 sequence (looked up): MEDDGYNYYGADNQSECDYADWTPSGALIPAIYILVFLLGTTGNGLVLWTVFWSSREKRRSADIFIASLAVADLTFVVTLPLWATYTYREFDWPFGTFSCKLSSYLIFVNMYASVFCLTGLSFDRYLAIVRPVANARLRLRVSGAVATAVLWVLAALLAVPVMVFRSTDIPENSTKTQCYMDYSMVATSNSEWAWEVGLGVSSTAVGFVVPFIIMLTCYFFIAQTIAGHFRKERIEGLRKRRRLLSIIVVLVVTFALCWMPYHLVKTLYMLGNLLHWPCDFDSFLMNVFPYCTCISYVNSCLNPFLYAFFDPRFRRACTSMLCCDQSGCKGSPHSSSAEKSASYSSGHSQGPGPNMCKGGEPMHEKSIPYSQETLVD

[5] = dose ranges from 5.5 to 88 μg/kg

## SEQ ID NO: 131: 20 kDa PEG-tetrakis(Atz-KFRRQRP[hArg][Cha]SHKG[Oic][Nle]P[4-Cl—F]) (KFRRQRP[hArg][Cha]SHKG[Oic][Nle]P[Phe(4-Cl)]; not fully specified (N-terminus); also: 20 kDa PEG carries four peptide copies)
APJ receptor [1]
  EC50: 0.794 nM

## [PE65;hArg68;Cha69;3-(1-(2-aminoethoxy(PEG9)ethyl)-1H-1,2,3-triazol-4-yl)Ala70;Oic74;Nle75;4-Cl-F77]Apelin-13(65-77) ([pGlu]RP[hArg][Cha][Atz](PEG10′)HKG[Oic][Nle]P[Phe(4-Cl)]) [SEQ ID NO: 23]
[2]
  dp/dtmax: dose dependent increase
  dp/dtmin: decrease
  systolic pressure: increases
[3]; MI rats, intravenous infusion of 88 μg/kg accumulative dose
  Heart rate (HR) increase: up to 10.6%
[3]; MI rats
  mean dp/dt max increase: 24.5%
[3]; [5]
  other cardiac hemodynamic changes: No other cardiac hemodynamic changes were observed
  peripheral vascular resistant measurement such as mean arterial pressure: No significant changes
[3]; healthy rats
  mean dp/dt max increase: 32%

## apelin
Isolated cardiomyocyctes
  increase in sarcomere shortening: up to 140%

## {Hydrogen}[PE]RP[hArg][Cha][Pra(NPeg9) ]HKG[Oic][Nle][4-Cl-F]{FreeAcid}
APJ receptor [4]
  EC50: 133 nM

## {Thiopropionyl(20K-mPEG)}LLRP[hArg][Cha]SHKG[Oic][Nle]P[4-Cl—F]{FreeAcid} ({mPEG 20 kDa}-[Mpa]LLRP[hArg][Cha]SHKG[Oic][Nle]P[Phe(4-Cl)]-OH) [SEQ ID NO: 124]
Human APJ
  agonist activity relative to pyr apelin-13 (SEQ ID NO: 128): potent and act as a full agonist

## {20K‑mPEG-Thiopropionyl}-KFRRQRP[hArg][Cha]SHKG[Oic][Nle]P[Phe(4-Cl)] [Thiopropionyl(20K-mPEG)-KFRRQRP[hArg][Cha]SHKG[Oic][Nle]P[4-Cl-F]]
Rat APJ receptor
  EC50 (GTPγS assay): 0.252 nM

## {40K‑mPEG-Thiopropionyl}-KFRRQRP[hArg][Cha]SHKG[Oic][Nle]P[Phe(4-Cl)]-OH [{Thiopropionyl(40K-mPEG)}KFRRQRP[hArg][Cha]SHKG[Oic][Nle]P[4-Cl-F]{FreeAcid}]
Rat APJ receptor
  EC50 (GTPγS assay): 1.37 nM
  potency (GTPγS assay), fold reduction relative to 20 kDA (SEQ ID NO: 24): 5 fold
